Values quoted from earlier work, collected in patent US20110105330A1, “C[…]” (priority 2009, published 2011).

Conditions: ph 1.9, 20° C.

Question: For O=C(O)CNCP(=O)(O)O [Glyphosate, n-(phosphonomethyl) glycine], which solubility in water is on record?
Answer: Its solubility in water is “approximately 10.5 g/L”.
